Measured values as given in publication PMC8621857, “Structural Insights into the Azole Resistance of the Candida albicans Darlington Strain Using Saccharomyces cerevisiae Lanosterol 14α-Demethylase as a Surrogate” (Journal of Fungi, 2021).
Where two headings read alike, the source gives them in different places.

Tests used:
[1] = system: S. cerevisiae strain AD3Δ ScErg11 (AD3Δ) overexpressing wild-type ScLDM6×His; assay: Broth microdilution drug susceptibility assay (MIC80), strain AD3Δ ScErg11; type: cell-based, Saccharomyces cerevisiae; settings: strain AD3Δ; for MIC80: Saccharomyces cerevisiae, 48 h, 30 °C, pH 6.8, mean (± SEM), n = 3, read-out: MIC80; for MIC80/Relative Amount of ScLDM6×His: relative expression 1
Procedure: (§1) The native ScERG11 gene in yeast cells containing mutant ScERG11-6×His constructs in the PDR5 locus was disrupted by homologous recombination with a cassette encoding the His1 selection marker and sequences homologous with the regions bordering the endogenous ScERG11 ORF to create strains AD3Δ ScErg11 Y140H, AD3Δ ScErg11 I471T and AD3Δ ScErg11Y140H I471T [43]. Transformants were selected on SD-His agar plates incubated at 30 °C for 48–72 h. Genomic DNA was extracted, and DNA sequencing as above was used to confirm deletion of the native ERG11. Strain AD3Δ ScErg11 (denoted as AD3Δ), which overexpresses wild-type ScLDM6×His from the PDR5 locus and has the native ScERG11 gene disrupted, was used as a control strain [43].
(§2) Azole susceptibility was measured as the mean drug concentration required to inhibit 80% of yeast growth (MIC80) compared to a non-drug control, using a standard broth microdilution assay. Serial dilutions of short- (FLC and VCZ), medium- (VT-1161), and long-tailed (ITC and PCZ) azole drugs, and the control drugs micafungin (MCF) and amphotericin B (AMB), were prepared in a 96-well microtiter plate in complete synthetic media lacking uracil, buffered to pH 6.8 [34]. Control and test cells were seeded at an optical density of 600 nm (OD600) of 0.005 (~1.5 × 10^4 colony forming units). After incubation for 48 h at 30 °C with constant agitation (200 rpm), the OD600 nm of each well was measured using a Synergy 2 multi-mode plate reader (BioTek Instruments, Winooski, VT, USA). The experiment was repeated three times (a total of nine measurements for the response of each strain to each drug). GraphPad Prism 5.0 software was used for statistical analysis, using a one-way analysis of variance with a Bonferroni post-hoc test. The statistical significance of comparisons was accepted when p < 0.05.

[2] = system: S. cerevisiae strain AD3Δ ScErg11 Y140H expressing ScLDM6×His Y140H; assay: Broth microdilution drug susceptibility assay (MIC80), strain AD3Δ ScErg11 Y140H; type: cell-based, Saccharomyces cerevisiae; settings: for MIC80: Saccharomyces cerevisiae, 48 h, 30 °C, pH 6.8, mean (± SEM), n = 3; for MIC80 / MIC80/Relative Amount of ScLDM6×His / fold-resistance based on the relative amount of recombinant enzyme compared with strain AD3Δ: strain Y140H; for MIC80/Relative Amount of ScLDM6×His / fold-resistance based on the relative amount of recombinant enzyme compared with strain AD3Δ: relative expression 0.74
Procedure: as §1, §2

[3] = system: C. albicans strain SC5314; assay: Agarose disk diffusion assay, control strain SC5314; type: cell-based, Candida albicans; settings: for effect of Cdr1p inhibitor RC21v3 on azole susceptibility: SC5314, RC21v3 at 6 µM in the assay medium
Procedure: Agarose diffusion assays were carried out as described previously using the Darlington strain of C. albicans (Pfizer Ltd., Sandwich, UK) and the control C. albicans database strain SC5314, which is not resistant to azoles. The Cdr1p-specific inhibitor RC21v3 and the CaMdr1p-specific inhibitor MCC1189 (MicroCombiChem, Wiesbaden, Germany), included in the assay medium at 6 µM, were used to investigate the contribution of efflux pumps to azole resistance in the Darlington strain [49, 50, 51].

[4] = target: T1, wild-type (AD3Δ) ScLDM6×His (Saccharomyces cerevisiae, UniProt P10614); assay: Type II azole binding to affinity purified wild-type ScLDM6×His; settings: for ΔAmax: type II binding
T1 construct: recombinant full-length C-terminal hexahistidine-tagged wild-type Saccharomyces cerevisiae LDM (ScLDM6×His); 6×His (hexahistidine) (C); made in house; host or cells: Saccharomyces cerevisiae strain AD3Δ ScErg11 (overexpression from the PDR5 locus, native ERG11 disrupted)
Procedure: Protein purification was carried out using established methods. In brief, a 12 L culture for each control and test strain was grown overnight in 1 L volumes of YPD medium (1% [w/v] yeast extract [BD Difco], 2% [w/v] peptone [BD Difco], and 2% [w/v] D-glucose) in baffled 3 L flasks at 30 °C, with constant agitation (140 rpm). Cells harvested by centrifugation were broken by bead-beating and crude membrane fractions obtained by differential centrifugation, as previously described. The protein concentration of the crude membranes was estimated using the Lowry assay, with bovine serum albumin (Thermo Fisher) used as the protein standard. The crude membranes (1 g at 2.5 mg/mL) were detergent-solubilized using 10× critical micelle concentration (CMC) n-decyl-β-D-maltoside (DM) (Anatrace, Maumee, OH, USA) in buffer containing 10% (w/v) glycerol, 250 mM NaCl, 20 mM Tris pH 7.5, 0.5 mM phenylmethanesulfonyl fluoride (PMSF), and 1 EDTA-free protease inhibitor pill (Roche, Basel, Switzerland) per 300 mL. When the protein was to be used to assess in vitro binding affinity for the test azoles, detergent solubilized ScLDM6×His recovered after centrifugation was affinity purified using a nickel-nitrilotriacetic acid (Ni-NTA)-agarose matrix (Qiagen). The bound ScLDM6×His was eluted from the matrix using an affinity purification buffer containing 50 mM L-histidine. The L-histidine was removed by washing the enzyme through centrifugal filtration, using a 50 kDa molecular-weight cut-off Amicon Ultra-4 filter (Sigma, Auckland, New Zealand).
The concentration of functional ScLDM6×His purified by the nickel affinity method was quantitated using the standard carbon monoxide (CO) binding method. Type II drug binding assays that measure absorbance changes due to ligand interactions with ScLDM6×His were performed for VCZ and ITC, using an established protocol. The peak429nm-trough410nm difference spectra plotted against azole concentration were used to generate drug binding curves. All calculations were performed using GraphPad Prism 5 Software.

[5] = wild-type (AD3Δ) ScLDM6×His, 2 µM enzyme, (± SEM), μM, read-out: [Azole]0.5
[6] = wild-type (AD3Δ) ScLDM6×His, (± SEM)
[7] = wild-type ScLDM6×His, supplement, 'in the 0.5 μM range'
[8] = wild-type enzyme, in the presence of 2 µM enzyme, read-out: IC50 from type II binding curves

T1 sequence (P10614 whole entry, stated change not applied): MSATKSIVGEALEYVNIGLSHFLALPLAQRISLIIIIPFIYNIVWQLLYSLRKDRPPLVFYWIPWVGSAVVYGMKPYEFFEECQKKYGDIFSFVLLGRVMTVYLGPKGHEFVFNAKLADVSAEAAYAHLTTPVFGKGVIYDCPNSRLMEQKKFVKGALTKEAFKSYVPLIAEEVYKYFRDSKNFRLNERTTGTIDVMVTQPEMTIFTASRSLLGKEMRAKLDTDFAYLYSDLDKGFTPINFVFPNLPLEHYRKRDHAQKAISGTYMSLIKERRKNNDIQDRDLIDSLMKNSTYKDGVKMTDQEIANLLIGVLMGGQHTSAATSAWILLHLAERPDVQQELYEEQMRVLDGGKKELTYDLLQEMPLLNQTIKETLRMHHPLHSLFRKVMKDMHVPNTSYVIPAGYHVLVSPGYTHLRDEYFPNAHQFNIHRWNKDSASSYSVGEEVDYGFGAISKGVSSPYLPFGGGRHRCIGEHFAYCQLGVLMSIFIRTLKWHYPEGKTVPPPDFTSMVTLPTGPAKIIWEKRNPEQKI

Structure (SMILES)	MIC80 [1]	MIC80/Relative Amount of ScLDM6×His [1]	MIC80 [2]	susceptibility compared with AD3Δ cells ([2]; cells overexpressing ScLDM6×His Y140H, not corrected for expression)	MIC80/Relative Amount of ScLDM6×His [2]	fold-resistance based on the relative amount of recombinant enzyme compared with strain AD3Δ [2]	effect of Mdr1 inhibitor MCC1189 on azole susceptibility [3]	effect of Cdr1p inhibitor RC21v3 on azole susceptibility [3]	IC50 [4, 5]	ΔAmax [4, 6]	Hill number [4, 6]	Kd [4, 6]	Kd [4, 7]	IC50 [4, 8]	resistance conferred, relative amount of recombinant ScLDM6×His taken into account ([2]; ScLDM6×His Y140H vs AD3Δ)	MIC80 higher than strain AD3Δ ScErg11 ([2]; strain AD3Δ ScErg11 Y140H vs AD3Δ, not corrected for expression, p < 0.001)	effect of Mdr1 inhibitor MCC1189 on azole susceptibility ([3]; SC5314, MCC1189 at 6 µM in the assay medium)	agarose diffusion susceptibility ([3]; SC5314, no efflux pump inhibitor)
CCC(C)n1ncn(-c2ccc(N3CCN(c4ccc(OCC5COC(Cn6cncn6)(c6ccc(Cl)cc6Cl)O5)cc4)CC3)cc2)c1=O (stereo not drawn) [ITC, itraconazole]	0.143 µM	0.143 µM	0.112 µM	slightly increased susceptibility	0.151 µM	1.1 ×	no effect on susceptibility	increased susceptibility	0.6 µM	0.08 (0.006)	1.61 (0.22)	430 nM	~500 nM	0.6 to 0.8 µM	–	–	–	–
C[C@@H](c1ncncc1F)[C@](O)(Cn1cncn1)c1ccc(F)cc1F [VCZ, voriconazole]	0.0933 µM	0.0933 µM	0.164 µM	–	0.221 µM	2.4 ×	–	did not alter the susceptibility	0.78 µM	0.10 (0.004)	1.85 (0.23)	620 nM	~500 nM	0.6 to 0.8 µM	2.4 fold	~ 2 fold	did not alter the susceptibility	susceptible
